Molecular target: soluble guanylate cyclase (sGC) (Homo sapiens (Human), UniProt Q02108+Q02153)
Experiment: sGC-HEK-cGMP assay with SNP incubation, LC/MS detection (Example 2A)
Format: cell-based
Details: HEK293 cells, 10 μM SNP, LC/MS detection; for Emax: 100% = BAY 41-2272 at 10 μM, read-out: HEK assay Emax - unconstrained (%); for EC50: top of curve not fitted to 100%, read-out: HEK assay EC50 - unconstrained
Protocol: Human embryonic kidney cells (HEK293), endogenously expressing soluble guanylate cyclase (sGC), were used to evaluate the activity of test compounds. Compounds stimulating the sGC receptor should cause an increase in the intracellular concentration of cGMP. HEK 293 cells were seeded in Dulbecco's Modification of Eagle's Medium supplemented with fetal bovine serum (10% final) and L-glutamine (2 mM final) in a 200 L volume at a density of 1×10^5 cells/well in a poly-D-lysine coated 96 well flat bottom plate and grown overnight at 37° C. Medium was aspirated and cells were washed with 1× Hank's Buffered Saline Salt Solution (200 μL). Cells were then incubated for 15 minutes at 37° C. with 200 μL of a 0.5 mM 3-isobutyl-1-methylxanthine (IBMX) solution. Test article and sodium nitroprusside solutions (x μM concentration for test article solution and 10 μM concentration for SNP solution; wherein x is one of the following concentrations: 30 μM, 10 μM, 3 μM, 1 μM, 0.3 μM, 0.1 μM, 0.03 μM, 0.01 μM, 0.003 μM, 0.001 μM, 0.0003 μM or 0.0001 μM) were then added to the assay mixture (2 μL each) and the resulting mixture incubated at 37° C. for 10 minutes. After the 10 minute incubation, the assay mixture was aspirated and 0.1M HCl (200 μL) was added to the cells. The plate was incubated at 4° C. for 30 minutes in the 0.1M HCl to stop the reaction and lyse the cells. The plates were then centrifuged at 1,200 g for 5 minutes at room temperature. Supernatants were collected and transferred to a new flat bottom 96 well plate for analysis by HPLC-MS. Vehicle controls were carried out using DMSO (1%) solutions. A known sGC stimulator, BAY 41-2272, was used as the positive control. Samples were diluted with an equal volume of 1 M Ammonium Acetate (pH 7) to neutralize samples for better chromatography. A 2× cGMP standard solution was prepared in 0.1 M HCl and then diluted with an equal volume of 1 M Ammonium Acetate, with the following final concentrations in nM: 1024, 512, 256, 128, 64, 32, 16, 8, 4, 2, 1. cGMP concentrations in the test plates were determined from each sample using the LC/MS conditions shown in Table 2 below and the calculated cGMP standard curve. EC50 values were calculated from concentration-response curves generated with GraphPad Prism Software. Data were normalized to a high control using the following equation: 100*(Sample−Low Control)/(High Control−Low Control), where the low control is the average of 6 samples treated with 1% DMSO, and the high control is the average of 8-12 samples treated with 10 uM BAY 41-2272. Data were fit using a non-linear regression, sigmoidal dose response, 3 parameter fits.

Chain of soluble guanylate cyclase (sGC) (Q02153 whole entry): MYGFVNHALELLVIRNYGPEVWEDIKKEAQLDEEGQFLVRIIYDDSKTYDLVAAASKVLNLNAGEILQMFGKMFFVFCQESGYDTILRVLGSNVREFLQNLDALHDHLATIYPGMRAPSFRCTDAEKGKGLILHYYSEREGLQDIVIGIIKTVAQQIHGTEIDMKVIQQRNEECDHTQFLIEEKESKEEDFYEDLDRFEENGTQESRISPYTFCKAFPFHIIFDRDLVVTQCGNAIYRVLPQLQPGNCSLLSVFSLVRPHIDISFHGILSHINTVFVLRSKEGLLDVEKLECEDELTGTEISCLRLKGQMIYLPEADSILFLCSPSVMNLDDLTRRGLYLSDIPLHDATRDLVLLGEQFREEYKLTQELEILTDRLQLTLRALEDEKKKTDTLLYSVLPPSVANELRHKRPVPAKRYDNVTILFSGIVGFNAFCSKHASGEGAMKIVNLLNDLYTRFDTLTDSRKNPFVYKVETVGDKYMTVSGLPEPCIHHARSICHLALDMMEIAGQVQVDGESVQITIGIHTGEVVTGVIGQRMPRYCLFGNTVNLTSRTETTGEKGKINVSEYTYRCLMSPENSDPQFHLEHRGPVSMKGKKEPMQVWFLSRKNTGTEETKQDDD
Chain of soluble guanylate cyclase (sGC) (Q02108 whole entry): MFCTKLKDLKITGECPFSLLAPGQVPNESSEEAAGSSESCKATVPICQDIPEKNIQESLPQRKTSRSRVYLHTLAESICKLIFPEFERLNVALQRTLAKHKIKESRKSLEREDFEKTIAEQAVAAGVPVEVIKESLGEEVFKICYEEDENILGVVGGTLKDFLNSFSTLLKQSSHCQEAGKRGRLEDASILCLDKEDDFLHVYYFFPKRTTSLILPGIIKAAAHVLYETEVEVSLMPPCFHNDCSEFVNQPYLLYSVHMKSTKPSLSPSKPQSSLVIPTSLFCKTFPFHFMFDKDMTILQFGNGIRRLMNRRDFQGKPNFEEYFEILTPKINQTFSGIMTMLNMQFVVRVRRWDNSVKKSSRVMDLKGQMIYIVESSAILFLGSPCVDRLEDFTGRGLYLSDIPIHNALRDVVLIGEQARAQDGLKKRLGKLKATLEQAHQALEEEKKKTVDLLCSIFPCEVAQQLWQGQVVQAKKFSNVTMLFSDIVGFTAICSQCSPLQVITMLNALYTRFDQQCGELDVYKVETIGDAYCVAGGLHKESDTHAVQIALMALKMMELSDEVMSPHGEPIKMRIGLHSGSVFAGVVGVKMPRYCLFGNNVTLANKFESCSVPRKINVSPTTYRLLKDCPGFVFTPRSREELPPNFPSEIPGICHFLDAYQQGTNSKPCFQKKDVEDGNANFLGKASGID

## O=C(O)C(Nc1nc(-c2cc(-c3ccon3)n(Cc3ccccc3F)n2)ncc1F)C1COC1 (centres unmarked) [Compound I-102]
  Emax: 60 to 80%
  EC50: 1000 to 5000 nM

## CC(C)[C@H](c1nnn[nH]1)N(C)c1nc(-c2cc(-c3ccon3)n(Cc3ccccc3F)n2)ncc1F [Compound I-237]
  Emax: 60 to 80%
  EC50: 100 to 500 nM

## COc1cnc(-c2cc(-c3ccon3)n(Cc3ccccc3F)n2)nc1N1CCOCC1 [Compound I-73]
  Emax: 40 to 60%
  EC50: 5000 to 10000 nM

## CONC(=O)CN(C)c1nc(-c2cc(-c3ccon3)n(Cc3ccccc3F)n2)ncc1F [Compound I-218]
  Emax: 40 to 60%
  EC50: 1000 to 5000 nM

## O=C1CC2(CCN(c3nc(-c4cc(-c5ccon5)n(Cc5ccccc5F)n4)ncc3F)CC2)CN1 [Compound I-30]
  Emax: 80 to 100%
  EC50: 100 to 500 nM

## O=S1(=O)CCN(C2CN(c3nc(-c4cc(-c5ccon5)n(Cc5ccccc5F)n4)ncc3F)C2)CC1 [Compound I-72]
  Emax: 60 to 80%
  EC50: 100 to 500 nM

## Fc1ccccc1Cn1nc(-c2ncc(F)c(N3CCC(F)(F)C3)n2)cc1-c1ccon1 [Compound I-63]
  Emax: 60 to 80%
  EC50: 100 to 500 nM

## C[C@@H](C(=O)O)N(C)c1nc(-c2cc(-c3ccon3)n(Cc3ccccc3F)n2)ncc1F [Compound I-207]
  Emax: 100 to 120%
  EC50: 500 to 1000 nM

## O=C(CNc1nc(-c2cc(-c3ccon3)n(Cc3ccccc3F)n2)ncc1F)N1CCOCC1 [Compound I-31]
  Emax: 60 to 80%
  EC50: 500 to 1000 nM

## O=C(O)[C@@H]1c2ccccc2CCN1c1nc(-c2cc(-c3ccon3)n(Cc3ccccc3F)n2)ncc1F [Compound I-120]
  Emax: 60 to 80%
  EC50: 100 to 500 nM

## CC(C)C[C@H](Nc1nc(-c2cc(-c3ccon3)n(Cc3ccccc3F)n2)ncc1F)C(=O)NS(=O)(=O)C1CC1 [Compound I-157]
  Emax: 60 to 80%
  EC50: 100 to 500 nM

## O=C(NS(=O)(=O)C1CC1)C1CCCCN1c1nc(-c2cc(-c3ccon3)n(Cc3ccccc3F)n2)ncc1F (centres unmarked) [Compound I-144]
  Emax: 80 to 100%
  EC50: 500 to 1000 nM

## O=C(O)C1(C2CCCCC2)CCN(c2nc(-c3cc(-c4ccon4)n(Cc4ccccc4F)n3)ncc2F)CC1 [Compound I-290]
  Emax: 60 to 80%
  EC50: 100 to 500 nM

## O=C(O)C1CCN(c2nc(-c3cc(-c4ccon4)n(Cc4ccccc4F)n3)ncc2F)C1 (centres unmarked) [Compound I-76]
  Emax: 60 to 80%
  EC50: 500 to 1000 nM

## CCNC(=O)NC1CCCN(c2nc(-c3cc(-c4ccon4)n(Cc4ccccc4F)n3)ncc2F)C1 (centres unmarked) [Compound I-70]
  Emax: 80 to 100%
  EC50: 100 to 500 nM

## CC(C)[C@@H](C(=O)O)N(C)c1ccnc(-c2cc(-c3ccon3)n(Cc3ccccc3F)n2)n1 [Compound I-272]
  Emax: 60 to 80%
  EC50: 100 to 500 nM

## CS(=O)(=O)CCC(Nc1nc(-c2cc(-c3ccon3)n(Cc3ccccc3F)n2)ncc1F)C(=O)O (centres unmarked) [Compound I-178]
  Emax: 40 to 60%
  EC50: 5000 to 10000 nM

## O=C(O)C(CC(F)(F)F)Nc1nc(-c2cc(-c3ccon3)n(Cc3ccccc3F)n2)ncc1F (centres unmarked) [Compound I-180]
  Emax: 80 to 100%
  EC50: 1000 to 5000 nM

## Fc1ccccc1Cn1nc(-c2ncc(F)c(NCc3nn[nH]n3)n2)cc1-c1ccon1 [Compound I-146]
  Emax: 80 to 100%
  EC50: 100 to 500 nM

## N#CCNc1nc(-c2cc(-c3ccon3)n(Cc3ccccc3F)n2)ncc1F [Compound I-141]
  Emax: 60 to 80%
  EC50: 100 to 500 nM

## CC(C)[C@@H](CC(=O)O)Nc1nc(-c2cc(-c3ccon3)n(Cc3ccccc3F)n2)ncc1F [Compound I-181]
  Emax: 100 to 120%
  EC50: 500 to 1000 nM

## OC[C@H]1CCCN1c1nc(-c2cc(-c3ccon3)n(Cc3ccccc3F)n2)ncc1F [Compound I-155]
  Emax: 60 to 80%
  EC50: 100 to 500 nM

## CN(CCC(=O)O)c1nc(-c2cc(-c3ccon3)n(Cc3ccccc3F)n2)ncc1F [Compound I-169]
  Emax: 60 to 80%
  EC50: 100 to 500 nM

## Fc1ccccc1Cn1nc(-c2nc(Cl)c(F)c(N3CCOCC3)n2)cc1-c1ccon1 [Compound I-150]
  Emax: 40 to 60%
  EC50: 100 to 500 nM

## OCC1CNCCN1c1nc(-c2cc(-c3ccon3)n(Cc3ccccc3F)n2)ncc1F (centres unmarked) [Compound I-211]
  Emax: > 120%
  EC50: 1000 to 5000 nM

## CC1(C)CN(c2nc(-c3cc(-c4ccon4)n(Cc4ccccc4F)n3)ncc2F)CC1C(=O)O (centres unmarked) [Compound I-152]
  Emax: 80 to 100%
  EC50: 1 to 100 nM

## CC(C)(C)OC(=O)N1CCCC(Nc2nc(-c3cc(-c4ccon4)n(Cc4ccccc4F)n3)ncc2F)C1 (centres unmarked) [Compound I-27]
  Emax: 60 to 80%
  EC50: 500 to 1000 nM

## O=C(O)[C@H]1CC[C@@H](Nc2nc(-c3cc(-c4ccon4)n(Cc4ccccc4F)n3)ncc2F)C1 [Compound I-179]
  Emax: 80 to 100%
  EC50: 100 to 500 nM

## Fc1ccccc1Cn1nc(-c2ncc(F)c(N3CC4(COC4)C3)n2)cc1-c1ccon1 [Compound I-32]
  Emax: 60 to 80%
  EC50: 100 to 500 nM

## Fc1ccccc1Cn1nc(-c2ncc(F)c(N3CCCC4(COC4)C3)n2)cc1-c1ccon1 [Compound I-47]
  Emax: 40 to 60%
  EC50: 100 to 500 nM

## CN(CC1(C(=O)O)CCCC1)c1nc(-c2cc(-c3ccon3)n(Cc3ccccc3F)n2)ncc1F [Compound I-228]
  Emax: 0 to 10%
  EC50: > 10000 nM

## CN(c1ccccc1C(=O)O)c1nc(-c2cc(-c3ccon3)n(Cc3ccccc3F)n2)ncc1F [Compound I-153]
  Emax: 60 to 80%
  EC50: 100 to 500 nM

## CN(CC1(C(=O)O)CCOCC1)c1nc(-c2cc(-c3ccon3)n(Cc3ccccc3F)n2)ncc1F [Compound I-238]
  Emax: 60 to 80%
  EC50: 100 to 500 nM

## Fc1ccccc1Cn1nc(-c2ncc(F)c(N3CCC(c4nnn[nH]4)CC3)n2)cc1-c1ccon1 [Compound I-145]
  Emax: 80 to 100%
  EC50: 1000 to 5000 nM

## O=C(O)[C@H](Nc1nc(-c2cc(-c3ccon3)n(Cc3ccccc3F)n2)ncc1F)C1CC1 [Compound I-240]
  Emax: 60 to 80%
  EC50: 500 to 1000 nM

## CC1(Nc2nc(-c3cc(-c4ccon4)n(Cc4ccccc4F)n3)ncc2F)CCOCC1 [Compound I-64]
  Emax: 80 to 100%
  EC50: 1 to 100 nM

## Fc1ccccc1Cn1nc(-c2ncc(F)c(N3CCCC(F)C3)n2)cc1-c1ccon1 (centres unmarked) [Compound I-56]
  Emax: 80 to 100%
  EC50: 100 to 500 nM

## Fc1ccccc1Cn1nc(-c2ncc(F)c(N3CCCN3)n2)cc1-c1ccon1 [Compound I-193]
  Emax: 60 to 80%
  EC50: 1000 to 5000 nM

## CC(C)(C)OC(=O)N1CCC(Nc2nc(-c3cc(-c4ccon4)n(Cc4ccccc4F)n3)ncc2F)(C(=O)O)CC1 [Compound I-110]
  Emax: 20 to 40%
  EC50: > 10000 nM

## CC(C)C[C@@H](Nc1nc(-c2cc(-c3ccon3)n(Cc3ccccc3F)n2)ncc1F)C(=O)O [Compound I-103]
  Emax: 80 to 100%
  EC50: 1 to 100 nM

## O=C(O)[C@H](Nc1nc(-c2cc(-c3ccon3)n(Cc3ccccc3F)n2)ncc1F)C1CCCCC1 [Compound I-243, (R)-2-cyclohexyl-2-((5-fluoro-2-(1-(2-fluorobenzyl)-5-(isoxazol-3-yl)-1H-pyrazol-3-yl)pyrimidin-4-yl)amino)acetic acid]
  Emax: 80 to 100%
  EC50: 1 to 100 nM

## O=C(N1CCN(c2nc(-c3cc(-c4ccon4)n(Cc4ccccc4F)n3)ncc2F)C(CO)C1)C(F)(F)F (centres unmarked) [Compound I-212]
  Emax: > 120%
  EC50: 500 to 1000 nM

## O=C(O)C1(CNc2nc(-c3cc(-c4ccon4)n(Cc4ccccc4F)n3)ncc2F)CCOCC1 [Compound I-194]
  Emax: 80 to 100%
  EC50: 100 to 500 nM

## CCNC(=O)NC1CN(c2nc(-c3cc(-c4ccon4)n(Cc4ccccc4F)n3)ncc2F)C1 [Compound I-71]
  Emax: 60 to 80%
  EC50: 100 to 500 nM

## CCC(CC)(CNc1nc(-c2cc(-c3ccon3)n(Cc3ccccc3F)n2)ncc1F)C(=O)O [Compound I-217]
  Emax: 60 to 80%
  EC50: 100 to 500 nM

## CCC(C)[C@H](C(=O)O)N(C)c1nc(-c2cc(-c3ccon3)n(Cc3ccccc3F)n2)ncc1F (some centres unmarked) [Compound I-247]
  Emax: 80 to 100%
  EC50: 1 to 100 nM

## Fc1ccccc1Cn1nc(-c2ncc(F)c(Nc3nnn[nH]3)n2)cc1-c1ccon1 [Compound I-276]
  Emax: 40 to 60%
  EC50: 100 to 500 nM

## Fc1ccccc1Cn1nc(-c2ncc(F)c(NC3CNC3)n2)cc1-c1ccon1 [Compound I-38]
  Emax: 60 to 80%
  EC50: 5000 to 10000 nM

## COC1CCN(c2nc(-c3cc(-c4ccon4)n(Cc4ccccc4F)n3)ncc2F)CC1 [Compound I-22]
  Emax: 60 to 80%
  EC50: 100 to 500 nM
